From DBAASP come the findings set out here.

Holding throughout (assay): ≥ marks a high value that may be exact or a test limit, other limits are often not marked, values filed in µg/mL are converted to µM
Assay [1] concerns Neisseria gonorrhoeae F62.
Assay [2] concerns Neisseria gonorrhoeae FA19.
Assay [3] relates to Micrococcus luteus BCRC 11034.
The subject of assay [4] is Staphylococcus aureus BCRC 10780.
For assay [5], the system named is Staphylococcus sp. BCRC 10451.
The test system of assay [6] is Streptococcus pneumoniae BCRC 10794.
For a further assay, the system named is Vibrio alginolyticus.
Assay [7] deals with Vibrio harveyi BCRC 13812.
In assay [8] the test system is Acinetobacter baumannii AL1851-ΔLpxA.
In assay [9] the test system is Acinetobacter baumannii ATCC 19606.
Assay [10] relates to Acinetobacter baumannii Al1852-ΔLpxD.
For assay [11], the system named is Candida albicans ATCC 10231.
Assay [12] relates to Candida albicans CEMTC 34.
Assay [13] has as its system Candida glabrata CEMTC 2563.
The test system of assay [14] is Candida parapsilosis CEMTC 2529.
Assay [15] relates to Candida tropicalis CEMTC 2385.
The test system of assay [16] is Citrobacter freundii DSM 30029.
For assay [17], the system named is Escherichia coli DSM 1103.
Assay [18] deals with Klebsiella pneumoniae DSM 789.
In assay [19] the test system is Pseudomonas aeruginosa DSM 1117.
The test system of assay [20] is Salmonella enterica DSM 17058.
Another assay relates to Shigella sonnei DSM 5570.
Assay [21] has as its system Staphylococcus aureus DSM 11729.
Assay [22] concerns Staphylococcus epidermidis DSM 28319.
The subject of assay [23] is Enterococcus faecalis ATCC 29212.
Assay [24] deals with Escherichia coli ATCC 35218.
Assay [25] concerns Pseudomonas aeruginosa ATCC 27853.
In assay [26] the test system is Staphylococcus aureus ATCC 25325.
In assay [27] the test system is Bacillus cereus ATCC 11778.
Assay [28] has as its system Pseudomonas aeruginosa ATCC 9027.
Assay [29] concerns Staphylococcus aureus ATCC 25923.
Assay [30] deals with Staphylococcus aureus ATCC 25023.

Molecules are shown by their SMILES. ≈ marks a conversion by molar mass, not a printed value. Some results are limits rather than exact numbers.

For `CC(C)[C@H](NC(=O)[C@@H]1CSSC[C@H](N)C(=O)N[C@@H](Cc2ccc(O)cc2)C(=O)N[C@H]2CSSC[C@H](NC(=O)[C@H](Cc3ccccc3)NC(=O)[C@H](CCCN=C(N)N)NC(=O)[C@H](CCCN=C(N)N)NC(=O)[C@H](CCCN=C(N)N)NC2=O)C(=O)N[C@@H](C(C)C)C(=O)N1)C(N)=O` [CYCRRRFCVCV], the results for the MIC in [1] and in assay [2] were 3.2 µM (≈ 4.49 µg/mL) and 10 µM (≈ 14 µg/mL), respectively.
On to `CC[C@H](C)[C@H](NC(=O)[C@H](Cc1ccccc1)NC(C)=O)C(=O)N[C@@H](Cc1ccccc1)C(=O)N[C@@H](Cc1cnc[nH]1)C(=O)N[C@H](C(=O)N[C@H](C(=O)N[C@@H](CCCCN)C(=O)NCC(=O)N[C@@H](CC(C)C)C(=O)N[C@@H](Cc1ccccc1)C(=O)N[C@@H](Cc1cnc[nH]1)C(=O)N[C@@H](C)C(=O)NCC(N)=O)[C@@H](C)CC)[C@@H](C)CC` [FIFHIIKGLFHAG], for which the minimal inhibitory concentration (MIC) is at least 33.3 µM in assay [3]; 4.17 µM (≈ 6.42 µg/mL) in [4]; 4.17 µM (≈ 6.42 µg/mL) in assay [5]; 16.7 µM (≈ 25.7 µg/mL) in assay [6]; 4.17 µM (≈ 6.42 µg/mL) in the assay with Vibrio alginolyticus; 4.17 µM (≈ 6.42 µg/mL) in [7].
With `NCCCC[C@H](NC(=O)[C@H](Cc1ccccc1)NC(=O)[C@H](Cc1ccccc1)NC(=O)[C@H](CCCCN)NC(=O)[C@H](Cc1ccccc1)NC(=O)[C@H](Cc1ccccc1)NC(=O)[C@H](CCCCN)NC(=O)[C@H](Cc1ccccc1)NC(=O)[C@H](Cc1ccccc1)NC(=O)[C@@H](N)CCCCN)C(N)=O` [KFFKFFKFFK], the MIC in [8] was 16 µM (≈ 22.6 µg/mL); in assay [9], 32 µM (≈ 45.2 µg/mL); in [10], at least 32 µM; in assay [11], 20 µM (≈ 28.3 µg/mL); in [12], 20 µM (≈ 28.3 µg/mL); in assay [13] it was 20 µM (≈ 28.3 µg/mL). Moreover, the MIC in assay [14] is 20 µM (≈ 28.3 µg/mL); in [15] it was 10 µM (≈ 14.1 µg/mL); in assay [16], 4 µM (≈ 5.65 µg/mL); in assay [17], 2 µM (≈ 2.83 µg/mL); in assay [18], at least 32 µM; in assay [19] it was 1 µM (≈ 1.41 µg/mL). In addition, the MIC in assay [20] was found to be 16 µM (≈ 22.6 µg/mL); against Shigella sonnei DSM 5570, 2 µM (≈ 2.83 µg/mL); in [21] it was 16 µM (≈ 22.6 µg/mL); in assay [22], 0.5 µM (≈ 0.706 µg/mL).
Regarding `CC(C)C[C@H](NC(=O)CNC(=O)[C@@H](NC(=O)[C@H](Cc1cnc[nH]1)NC(=O)[C@H](CCCCN)NC(=O)[C@H](CC(C)C)NC(=O)[C@@H](N)CCCCN)C(C)C)C(=O)N[C@@H](Cc1cnc[nH]1)C(=O)N[C@H](C(=O)NCC(=O)N[C@@H](CCCCN)C(=O)N[C@@H](CC(C)C)C(=O)N[C@@H](CCCCN)C(=O)O)C(C)C` [KLKHVGLHVGKLK], the MIC in [23] was 52.3 µM (≈ 76.2 µg/mL); in assay [24] it was at least 43.4 µM; in [25], 56 µM (≈ 81.6 µg/mL); in assay [26] it was at least 40.2 µM.
For the molecule `CC(C)C[C@H](NC(=O)[C@@H](NC(=O)[C@H](CCCCN)NC(=O)[C@H](CCCCN)NC(=O)[C@H](CC(C)C)NC(=O)[C@@H](N)CC(C)C)C(C)C)C(=O)N[C@@H](CCCCN)C(=O)N[C@@H](C)C(=O)N[C@@H](C)C(=O)N[C@@H](C)C(N)=O` [LLKKVLKAAA], the MIC is at least 50 µM in assay [27], at least 50 µM in assay [24], over 50 µM in assay [28] and over 50 µM in [29].
In turn, `CC(C)C[C@H](NC(=O)[C@H](CCCN=C(N)N)NC(=O)[C@H](CC(C)C)NC(=O)[C@H](CC(C)C)NC(=O)[C@H](CC(C)C)NC(=O)[C@H](CC(C)C)NC(=O)[C@H](CC(C)C)NC(=O)[C@H](CCCCN)NC(=O)[C@H](Cc1c[nH]c2ccccc12)NC(=O)[C@@H](N)CCCN=C(N)N)C(N)=O` [RWKLLLLLRL] showed an MIC in assay [30] of 1.51 µM (≈ 2 µg/mL).
